Data as given in patent publication EP0719251B1, “BICYCLO (2.2.2) OCTANE DERIVATIVES CHOLECYSTOKININ AND/OR GASTRIN ANTAGONISTS” (JAMES BLACK FOUNDATION LIMITED, priority 1993, dated 1995).

How the values were obtained:
CCKB receptor = target: T1, CCKB receptor (Mus musculus, UniProt P56481); assay: radioligand binding assay at the CCKB receptor in mouse cortical membranes; conditions: [125I]-CCK8S 200pM, 150 min at 21 ± 3°C; for Ki: read-out: CCKB pKi (converted)
T1 construct: The whole brains from male mice (CD1 22-25g; Charles River) were removed; from tissue; host or cells: cerebral cortex membranes of male CD1 mice
T1 sequence (P56481 1-453): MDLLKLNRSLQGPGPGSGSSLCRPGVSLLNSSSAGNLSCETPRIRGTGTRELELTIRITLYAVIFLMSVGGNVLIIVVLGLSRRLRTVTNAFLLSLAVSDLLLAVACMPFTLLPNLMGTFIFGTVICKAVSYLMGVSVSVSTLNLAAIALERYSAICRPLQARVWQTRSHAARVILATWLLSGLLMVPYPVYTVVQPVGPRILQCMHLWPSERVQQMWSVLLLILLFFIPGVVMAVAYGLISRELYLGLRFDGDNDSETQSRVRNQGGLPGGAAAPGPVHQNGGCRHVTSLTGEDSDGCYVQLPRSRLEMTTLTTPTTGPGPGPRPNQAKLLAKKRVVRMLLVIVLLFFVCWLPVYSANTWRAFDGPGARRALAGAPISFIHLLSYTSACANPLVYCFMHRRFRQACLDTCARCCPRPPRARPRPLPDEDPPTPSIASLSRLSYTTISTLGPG
Description: The compounds of the examples were tested for binding at the CCKB receptor in mouse cortical membranes by means of a radioligand binding assay. The procedure was as follows:
The whole brains from male mice (CD1 22-25g; Charles River) were removed and placed in ice-cold buffer (pH7.2 @ 21 ± 3°C) of the following composition (mM); 10 HEPES, 130 NaCl, 4.7 KCl, 5 MgCl2, 1 EDTA and containing 0.25g.l^-1 bacitracin. The cortex was dissected, weighed and homogenised in 40ml ice-cold buffer using a Teflon-in-glass homogeniser. The homogenate was centrifuged at 39,800g for 20 min at 4°C, the supernatant discarded and the pellet resuspended by homogenisation in fresh buffer. The homogenate was recentrifuged (39,800g; 20 min @ 4°C) and the final pellet was resuspended in HEPES buffer to give a tissue concentration of 2mg.ml^-1(original wet weight).
The assay was terminated by rapid filtration through pre-soaked Whatman GF/B filters using a Brandell Cell harvester. The filters were washed (3 x 3ml) with ice-cold 50mM Tris-HCl (pH7.4 @ 4°C) and bound radioactivity determined by counting (1 min.) in a gamma-counter.

gastrin = target: T2, gastrin (Rattus norvegicus, UniProt P30553); assay: gastrin antagonist activity in an immature rat stomach assay; conditions: isolated immature rat stomach, cumulative pentagastrin dose-response curves, acid secretion; for Kb: read-out: Gastrin pKB (converted); for Gastrin pKB: 60 min
T2 construct: The stomach was excised and flushed with ca. 1 ml of unbuffered physiological saline solution; from tissue; host or cells: isolated whole stomach of immature rats (33-50 g, ca. 21 days old)
T2 sequence (P30553 1-452): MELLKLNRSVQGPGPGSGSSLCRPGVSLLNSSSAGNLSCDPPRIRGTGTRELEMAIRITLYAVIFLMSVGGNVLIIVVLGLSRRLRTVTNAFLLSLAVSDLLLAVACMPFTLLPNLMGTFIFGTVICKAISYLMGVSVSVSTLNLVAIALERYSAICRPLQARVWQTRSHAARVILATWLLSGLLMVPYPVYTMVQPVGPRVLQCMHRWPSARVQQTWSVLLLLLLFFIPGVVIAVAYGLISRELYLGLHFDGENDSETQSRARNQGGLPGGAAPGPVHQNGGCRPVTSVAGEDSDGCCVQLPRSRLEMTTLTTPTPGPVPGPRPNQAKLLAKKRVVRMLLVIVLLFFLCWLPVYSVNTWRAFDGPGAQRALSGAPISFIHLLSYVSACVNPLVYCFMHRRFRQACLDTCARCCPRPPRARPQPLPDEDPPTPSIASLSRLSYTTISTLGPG
Description: The compounds of the examples were also tested for gastrin antagonist activity in an immature rat stomach assay. The procedure was as follows: The oesophagus of immature rats (33-50 g, ca. 21 days old) was ligated at the level of the cardiac sphincter and the duodenal sphincter was cannulated. The stomach was excised and flushed with ca. 1 ml of unbuffered physiological saline solution. The fundus was punctured and cannulated. A further 4-5 ml of unbuffered solution was flushed through the stomach to ensure the preparation was not leaking. […] The stomach was continuously perfused at a rate of 1 ml min^-1 with unbuffered solution gassed with 100% O2 with the perfusate passing over an internally referenced pH-electrode fixed 12 cm above the stomach. After 120 min of stabilisation the drugs were added directly to the serosal solution in the organ bath and after a further 60 min cumulative pentagastrin dose-response curves were started.

CCKA = target: T3, CCKA (Cavia porcellus, UniProt Q63931); assay: CCKA binding assay in guinea-pig pancreas membranes; conditions: [125I]-CCK8(S) 200pM; for Ki: containing 0.375 µM PD134,308, read-out: CCKA pKi (converted); for CCKA pKi: containing 0.375 µM PD134,308
T3 construct: The pancreatata were removed from male guinea-pigs (200-300g; Dunkin Hartley); from tissue; host or cells: pancreas membranes of male Dunkin Hartley guinea-pigs
T3 sequence (Q63931 1-430): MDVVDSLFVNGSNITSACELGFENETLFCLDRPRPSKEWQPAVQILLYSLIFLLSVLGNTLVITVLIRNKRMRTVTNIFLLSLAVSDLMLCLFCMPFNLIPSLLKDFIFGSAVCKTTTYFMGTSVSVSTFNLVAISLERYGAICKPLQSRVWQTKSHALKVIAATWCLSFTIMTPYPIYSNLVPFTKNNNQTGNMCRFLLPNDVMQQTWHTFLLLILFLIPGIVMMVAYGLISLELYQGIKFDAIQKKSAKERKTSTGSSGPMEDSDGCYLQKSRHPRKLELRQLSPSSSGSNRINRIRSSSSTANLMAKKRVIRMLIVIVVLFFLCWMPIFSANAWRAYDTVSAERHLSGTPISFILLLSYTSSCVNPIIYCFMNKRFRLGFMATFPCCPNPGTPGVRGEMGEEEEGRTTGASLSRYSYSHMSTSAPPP
Description: The compounds of the examples were also tested in a CCKÅ binding assay as follows:
The pancreatata were removed from male guinea-pigs (200-300g; Dunkin Hartley) and placed in ice-cold HEPES buffer (pH 7.2 @ 21 ± 3° ). The pancreatata were homogenised in 40 ml ice-cold HEPES buffer using a polytron (Brinkmann, PT10, setting 10) 4 x 1 second.
The homogenate was centrifuged at 39,800g for 15 min at 4°. The supernatant was discarded and the pellet re-suspended using a Teflon-in-glass homogeniser in 20 volumes of fresh buffer and recentrifuged as above. The final pellet was re-suspended using a Teflon-in-glass homogeniser to a tissue concentration of 1 mg.ml^-1 (original wet weight), and filtered through 500 µm pore-size Nytex mesh.
The membranes (400µl; containing 0.375 µM PD134,308) are incubated for 150 minutes at 21 ± 3° in a final volume of 0.5ml with HEPES buffer containing [^125I]-CCK8(S) (50µl; 200pM) and competing compound. Total and non-specific binding of [^125I]-CCK8 (S) are defined using 50µl of buffer and 50µl of 100nM L-364,718 respectively. The assay is terminated by rapid filtration through pre-soaked Whatman GF/B filters using a Brandell Cell Harvester. The filters were washed (3 x 3ml) with ice-cold 50mM Tris HCl (pH 7.4 at 4° ) and bound radioactivity is determined by counting (1 min) in a gamma counter.

Ki (CCKB receptor) | Kb (gastrin) | Ki (CCKA) | CCKB pKi (CCKB receptor) | Gastrin pKB (gastrin) | CCKA pKi (CCKA) | Compound
50.1 nM | 20 nM | 398 nM | – | – | – | O=C(O)c1cc(NC(=O)[C@H](Cc2ccc(F)cc2)NC(=O)C2C3c4ccccc4C(c4ccccc43)C2C(=O)NCC23CC4CC(CC(C4)C2)C3)cc(C(=O)O)c1 (single isomer, unassigned) [Example 9, cis-7-(1S-(3,5-dicarboxyphenylaminocarbonyl) -2-(4-fluorophenyl)ethylaminocarbonyl)-8-(1-adamantanemethylaminocarbonyl) -2,3,5,6-dibenzobicyclo[2.2.2]octane]
3.16 nM | 2.51 nM | 1000 nM | – | – | – | O=C(O)c1cc(NC(=O)[C@H](Cc2ccccc2F)NC(=O)C2C3c4ccccc4C(c4ccccc43)C2C(=O)NCC23CC4CC(CC(C4)C2)C3)cc(C(=O)O)c1 (single isomer, unassigned) [Example 16, cis-7-(1S-(3,5-dicarboxyphenylaminocarbonyl)-2-(2-fluorophenyl)-ethylaminocarbonyl)-8-(1-adamantanemethylaminocarbonyl) -2,3,5,6-dibenzobicyclo[2.2.2]octane]
31.6 nM | 1580 nM | 2000 nM | – | – | – | COC(=O)c1cc(NC(=O)[C@H](Cc2ccccc2)NC(=O)C2C3c4ccccc4C(c4ccccc43)C2C(=O)NCC23CC4CC(CC(C4)C2)C3)cc(C(=O)O)c1 (stereo partly drawn) [Example 42, cis-7-(1S-(3-carboxy-5-methoxycarbonyl-phenylaminocarbonyl)-2-phenylethylaminocarbcnyl)-8-(1-adamantanemethylaminocarbonyl) -2,3,5,6-dibenzobicyclo[2.2.2]octane]
12.6 nM | 7.94 nM | 1000 nM | – | – | – | O=C(O)c1cc(NC(=O)[C@H](Cc2ccc(F)cc2)NC(=O)C2C3c4ccccc4C(c4ccccc43)C2C(=O)NCC23CC4CC(CC(C4)C2)C3)cc(C(=O)O)c1 (single isomer, unassigned) [Example 8, cis-7-(1S-(3,5-dicarboxyphenylaminocarbonyl) -2-(4-fluorophenyl)-ethylaminocarbonyl)-8-(1-adamantane-methylaminocarbonyl)-2,3,5,6-dibenzobicyclo[2.2.2]octane]
– | – | – | 6.5 | 6.9 | 6.1 | O=C(O)c1cc(NC(=O)[C@H](Cc2ccc3ccccc3c2)NC(=O)C2C3c4ccccc4C(c4ccccc43)C2C(=O)NCC23CC4CC(CC(C4)C2)C3)cc(C(=O)O)c1 (single isomer, unassigned) [Example 14, cis-7-(1S-(3,5-dicarboxyphenylaminocarbonyl)-2-(2-naphthyl) -ethylaminocarbonyl)-8-(1-adamantanemethylaminocarbonyl)-2,3,5,6-dibenzobicyclo[2.2.2]octane]
39.8 nM | 63.1 nM | – | – | – | 5.6 | O=C(O)c1cc(CNC(=O)[C@H](Cc2ccccc2)NC(=O)C2C3c4ccccc4C(c4ccccc43)C2C(=O)NCC23CC4CC(CC(C4)C2)C3)cc(C(=O)O)c1 (single isomer, unassigned) [Example 62, cis-7-(1S-(3,5-dicarboxyphenylmethylaminocarbonyl)-2-phenylethylaminocarbonyl)-8-(1-adamantanemethyl-aminocarbonyl)-2,3,5,6-dibenzobicyclo[2.2 .2]octane]
3.98 nM | 79.4 nM | 3160 nM | – | – | – | O=C(O)c1cc(NC(=O)[C@H](Cc2ccccc2)NC(=O)C2C3c4ccccc4C(c4ccccc43)C2C(=O)NCCc2ccccc2)cc(C(=O)O)c1 (stereo partly drawn) [Example 53, cis-7-(1S-(3,5-dicarboxyphenylaminocarbonyl) -2-phenylethylaminocarbonyl) -8-(2-phenylethylaminocarbonyl) -2,3,5,6-dibenzobicyclo[2.2.2]octane]
– | – | – | 8.6 | 7.9 | 5.7 | cis-7-(1S-(3,5-dicarboxyphenylaminocarbonyl) -2-(2-thiophenyl)-ethylaminocarbonyl) -8-(1-adamantane-methylaminocarbonyl) -2,3,5,6-dibenzobicyclo[2.2.2]octane [Example 6]
10 nM | 126 nM | 2510 nM | – | – | – | O=C(O)c1cc(NC(=O)[C@@H](Cc2ccccc2)NC(=O)C2C3c4ccccc4C(c4ccccc43)C2C(=O)NCC23CC4CC(CC(C4)C2)C3)cc(C(=O)O)c1 (single isomer, unassigned) [Example 3, cis-7-(1R-(3,5-dicarboxyphenylaminocarbonyl) -2-phenylethylaminocarbonyl)-8-(1-adamantanemethylaminocarbonyl) -2,3,5,6-dibenzobicyclo[2.2.2]octane]
3.16 nM | 3.98 nM | 316 nM | – | – | – | O=C(O)c1cc(NC(=O)[C@H](Cc2cccc(F)c2)NC(=O)C2C3c4ccccc4C(c4ccccc43)C2C(=O)NCC23CC4CC(CC(C4)C2)C3)cc(C(=O)O)c1 (single isomer, unassigned) [Example 18, cis-7-(1S-(3,5-dicarboxyphenylaminocarbonyl)-2-(3-fluorophenyl) -ethylaminocarbonyl)-8-(1-adamantanemethylaminocarbonyl)-2,3,5,6-dibenzobicyclo[2.2.2]octane]
